# Assay results: patent US8859543B2, “Imidazo[1,2-a]pyrazine derivatives and their use for the prevention or treatment of neurological, psychiatric and metabolic disorders and diseases” (Janssen Pharmaceutica NV, priority 2010, dated 2014)
# Read-outs that look alike come from different tables or passages of the source.
# Assays:
# PDE4D = PDE4D (Homo sapiens, UniProt Q08499); assay: In vitro PDE selectivity assay, PDE4D; assay type: biochemical; conditions: Table 4a in vitro selectivity; read-out: IC50 PDE type 4D
# Description: (§1) Rat recombinant PDE10A (rPDE10A2) was expressed in Sf9 cells using a recombinant rPDE10A baculovirus construct. Cells were harvested after 48 h of infection and the rPDE10A protein was purified by metal chelate chromatography on Ni-sepharose 6FF. […] The reaction was incubated for 60 min. at RT. […] After sedimentation of the beads during 30 min. the radioactivity was measured in a Perkin Elmer Topcount scintillation counter and results were expressed as cpm. For blank values the enzyme was omitted from the reaction and replaced by incubation buffer. […] The same assay principle is applied for the measurement of the affinity of the compound for other members of the PDE family with appropriate modifications in incubation buffer, substrate concentration, incubation time and stop solution.
# PDE10 = target: T1, PDE10 (Rattus norvegicus, UniProt Q9QYJ6); assay: PDE10 occupancy ([3H]-MP-10, striatum); assay type: in vivo; conditions: rat, sc; occupancy, administered s.c.; read-out: Occ. ED50
# T1 construct: from tissue; host or cells: rat brain sections, striatum (ex vivo autoradiography after in vivo dosing)
# T1 sequence (Q9QYJ6 1-794): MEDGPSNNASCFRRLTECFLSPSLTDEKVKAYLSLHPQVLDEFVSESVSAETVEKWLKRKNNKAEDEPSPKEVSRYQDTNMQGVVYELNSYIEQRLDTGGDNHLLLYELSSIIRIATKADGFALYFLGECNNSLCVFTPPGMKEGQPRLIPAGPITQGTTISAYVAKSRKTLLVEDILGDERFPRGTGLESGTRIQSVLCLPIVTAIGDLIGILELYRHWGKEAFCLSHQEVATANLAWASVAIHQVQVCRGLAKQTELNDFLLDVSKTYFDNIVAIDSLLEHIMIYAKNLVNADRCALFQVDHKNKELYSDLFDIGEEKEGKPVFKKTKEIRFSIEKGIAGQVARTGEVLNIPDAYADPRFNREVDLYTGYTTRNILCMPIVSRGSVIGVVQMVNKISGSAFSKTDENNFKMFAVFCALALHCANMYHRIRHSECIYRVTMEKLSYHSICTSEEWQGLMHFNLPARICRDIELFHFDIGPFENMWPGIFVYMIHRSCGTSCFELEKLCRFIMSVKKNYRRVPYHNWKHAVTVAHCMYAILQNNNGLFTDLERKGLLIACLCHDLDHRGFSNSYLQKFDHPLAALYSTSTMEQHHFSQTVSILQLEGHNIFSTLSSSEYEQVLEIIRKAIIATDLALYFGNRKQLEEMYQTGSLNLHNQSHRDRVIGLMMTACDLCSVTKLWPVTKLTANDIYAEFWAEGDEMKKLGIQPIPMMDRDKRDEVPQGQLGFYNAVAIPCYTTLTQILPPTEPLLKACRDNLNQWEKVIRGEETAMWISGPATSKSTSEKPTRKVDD
# Description: Dose-response or single dose experiments were performed to measure PDE10 occupancy 1 hour after subcutaneous (s.c.) or oral (p.o.) administration. Male Wistar rats (200 g) were treated by s.c. or p.o. administration of various PDE10 inhibitors. The PDE10 radioligand [^3H]-MP-10 (10 μCi/animal) was injected intravenously (i.v.) 30 minutes before sacrifice. Brains were immediately removed from the skull and rapidly frozen. Twenty μm-thick brain sections were cut using a cryostat-microtome, thaw-mounted on microscope slides and loaded in a β-imager to quantify PDE10 occupancy in the striatum.
# PDE2A = PDE2A (Homo sapiens, UniProt O00408); assay: In vitro PDE selectivity assay, PDE2A; assay type: biochemical; conditions: Table 4a in vitro selectivity; read-out: IC50 PDE type 2A
# Description: as §1
# [1] = test system: PCP-induced hyperlocomotion; assay: PCP-induced hyperlocomotion in rats (PCP); assay type: in vivo; conditions: Rattus norvegicus
# [2] = test system: apomorphine-induced stereotypy; assay: Apomorphine-induced stereotypy in rats (APO); assay type: in vivo; conditions: Rattus norvegicus, read-out: APO ED50
# Description: Apomorphine-Induced Stereotypy in Rats (APO)
# Apomorphine (1.0 mg/kg, i.v.)-induced stereotypy (compulsive sniffing, licking, chewing) was scored every 5 min. over the first hour after injection of apomorphine, following a 1 hour interval pre-treatment with the test compound. The score system was: (3) pronounced, (2) moderate, (1) slight, and (O) absent.
# PDE5A = PDE5A (Homo sapiens, UniProt O76074); assay: In vitro PDE selectivity assay, PDE5A; assay type: biochemical; conditions: Table 4a in vitro selectivity; read-out: IC50 PDE type 5A
# Description: as §1
# PDE11A = PDE11A (Homo sapiens, UniProt Q9HCR9); assay: In vitro PDE selectivity assay, PDE11A; assay type: biochemical; conditions: Table 4a in vitro selectivity; read-out: IC50 PDE type 11A
# Description: as §1
# [3] = target: T2, Rat recombinant PDE10A (rPDE10A2) (Rattus norvegicus, UniProt Q9QYJ6); assay: In vitro assay PDE10A (SPA, 3H-cAMP); assay type: biochemical
# T2 construct: made in house; host or cells: Sf9 insect cells, baculovirus
# T2 sequence (Q9QYJ6 1-794): T1 sequence (Q9QYJ6 1-794)
# Summary of the method: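 Purified Sf9-expressed rat PDE10A2 incubated 60 min at RT with 60 nM cAMP plus 0.008 μCi 3H-cAMP in 50 mM Tris pH 7.8, 8.3 mM MgCl2, 1.7 mM EGTA, 1% DMSO final. Product quantified by scintillation proximity counting against no-enzyme blanks and DMSO controls.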
# PDE6AB = PDE6AB (Homo sapiens, UniProt P16499+P35913); assay: In vitro PDE selectivity assay, PDE6AB; assay type: biochemical; conditions: Table 4a in vitro selectivity; read-out: IC50 PDE type 6AB
# Description: as §1
# PDE1B = PDE1B (Homo sapiens, UniProt Q01064); assay: In vitro PDE selectivity assay, PDE1B; assay type: biochemical; conditions: Table 4a in vitro selectivity; read-out: IC50 PDE type 1B
# Description: as §1
# PDE6AB, sequence (P16499 whole entry): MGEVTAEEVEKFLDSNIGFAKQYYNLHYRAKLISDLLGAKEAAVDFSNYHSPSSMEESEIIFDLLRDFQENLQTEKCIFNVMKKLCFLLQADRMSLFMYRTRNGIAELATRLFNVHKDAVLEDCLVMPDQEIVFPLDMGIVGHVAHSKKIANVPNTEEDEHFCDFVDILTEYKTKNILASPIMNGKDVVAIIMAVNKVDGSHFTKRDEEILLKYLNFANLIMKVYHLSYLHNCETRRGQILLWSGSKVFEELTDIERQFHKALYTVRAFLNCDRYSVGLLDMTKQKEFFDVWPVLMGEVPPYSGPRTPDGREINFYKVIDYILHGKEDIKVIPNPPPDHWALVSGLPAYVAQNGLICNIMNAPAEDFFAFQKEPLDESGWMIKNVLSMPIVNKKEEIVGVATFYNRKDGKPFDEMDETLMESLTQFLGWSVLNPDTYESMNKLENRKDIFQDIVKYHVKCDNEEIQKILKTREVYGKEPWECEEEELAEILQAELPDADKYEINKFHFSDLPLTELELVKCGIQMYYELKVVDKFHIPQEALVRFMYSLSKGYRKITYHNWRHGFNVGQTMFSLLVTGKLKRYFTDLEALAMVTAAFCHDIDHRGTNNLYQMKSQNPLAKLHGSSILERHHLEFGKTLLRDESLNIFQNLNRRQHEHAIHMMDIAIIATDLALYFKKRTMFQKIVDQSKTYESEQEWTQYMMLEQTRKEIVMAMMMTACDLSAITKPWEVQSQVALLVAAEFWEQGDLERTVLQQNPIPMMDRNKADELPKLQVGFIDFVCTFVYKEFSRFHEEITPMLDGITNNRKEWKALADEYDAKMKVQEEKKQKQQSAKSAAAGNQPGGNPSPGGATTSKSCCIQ
# PDE6AB, sequence (P35913 whole entry): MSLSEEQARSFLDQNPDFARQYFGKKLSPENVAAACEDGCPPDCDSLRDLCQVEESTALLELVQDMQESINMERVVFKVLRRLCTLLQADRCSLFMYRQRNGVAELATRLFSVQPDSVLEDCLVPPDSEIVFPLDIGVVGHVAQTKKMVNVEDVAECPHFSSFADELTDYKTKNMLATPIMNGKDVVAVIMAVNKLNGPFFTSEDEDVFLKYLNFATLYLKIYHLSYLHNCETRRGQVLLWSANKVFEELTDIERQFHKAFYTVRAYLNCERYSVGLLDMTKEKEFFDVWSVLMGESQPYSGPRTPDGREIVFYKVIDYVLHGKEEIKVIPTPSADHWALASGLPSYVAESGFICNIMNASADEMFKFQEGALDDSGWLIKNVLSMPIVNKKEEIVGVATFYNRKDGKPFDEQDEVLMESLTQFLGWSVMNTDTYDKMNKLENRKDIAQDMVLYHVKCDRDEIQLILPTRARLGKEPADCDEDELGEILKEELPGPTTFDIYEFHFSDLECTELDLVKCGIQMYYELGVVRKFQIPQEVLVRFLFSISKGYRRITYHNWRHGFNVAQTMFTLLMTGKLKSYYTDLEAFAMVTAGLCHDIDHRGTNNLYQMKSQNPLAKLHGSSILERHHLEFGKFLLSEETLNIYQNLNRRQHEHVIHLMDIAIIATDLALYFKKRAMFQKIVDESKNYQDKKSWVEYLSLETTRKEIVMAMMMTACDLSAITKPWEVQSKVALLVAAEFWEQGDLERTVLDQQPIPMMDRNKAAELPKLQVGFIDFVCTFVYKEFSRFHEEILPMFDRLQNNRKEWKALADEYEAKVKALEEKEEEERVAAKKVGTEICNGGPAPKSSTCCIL
# PDE1B, sequence (Q01064 whole entry): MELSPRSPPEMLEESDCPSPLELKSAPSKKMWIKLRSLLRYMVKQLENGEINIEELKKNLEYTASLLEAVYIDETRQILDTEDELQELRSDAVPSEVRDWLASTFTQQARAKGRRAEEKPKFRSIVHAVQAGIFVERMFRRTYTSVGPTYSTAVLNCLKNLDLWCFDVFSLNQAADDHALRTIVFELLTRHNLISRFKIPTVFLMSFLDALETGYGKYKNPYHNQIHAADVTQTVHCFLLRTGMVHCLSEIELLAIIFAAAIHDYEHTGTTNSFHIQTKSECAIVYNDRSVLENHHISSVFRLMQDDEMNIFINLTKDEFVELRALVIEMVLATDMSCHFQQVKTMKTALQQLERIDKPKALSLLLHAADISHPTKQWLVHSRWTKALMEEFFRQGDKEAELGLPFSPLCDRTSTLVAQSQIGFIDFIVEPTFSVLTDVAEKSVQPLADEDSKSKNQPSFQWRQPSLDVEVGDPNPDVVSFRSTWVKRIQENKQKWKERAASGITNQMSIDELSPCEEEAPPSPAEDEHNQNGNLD
# PDE2A, sequence (O00408 whole entry, species assumed): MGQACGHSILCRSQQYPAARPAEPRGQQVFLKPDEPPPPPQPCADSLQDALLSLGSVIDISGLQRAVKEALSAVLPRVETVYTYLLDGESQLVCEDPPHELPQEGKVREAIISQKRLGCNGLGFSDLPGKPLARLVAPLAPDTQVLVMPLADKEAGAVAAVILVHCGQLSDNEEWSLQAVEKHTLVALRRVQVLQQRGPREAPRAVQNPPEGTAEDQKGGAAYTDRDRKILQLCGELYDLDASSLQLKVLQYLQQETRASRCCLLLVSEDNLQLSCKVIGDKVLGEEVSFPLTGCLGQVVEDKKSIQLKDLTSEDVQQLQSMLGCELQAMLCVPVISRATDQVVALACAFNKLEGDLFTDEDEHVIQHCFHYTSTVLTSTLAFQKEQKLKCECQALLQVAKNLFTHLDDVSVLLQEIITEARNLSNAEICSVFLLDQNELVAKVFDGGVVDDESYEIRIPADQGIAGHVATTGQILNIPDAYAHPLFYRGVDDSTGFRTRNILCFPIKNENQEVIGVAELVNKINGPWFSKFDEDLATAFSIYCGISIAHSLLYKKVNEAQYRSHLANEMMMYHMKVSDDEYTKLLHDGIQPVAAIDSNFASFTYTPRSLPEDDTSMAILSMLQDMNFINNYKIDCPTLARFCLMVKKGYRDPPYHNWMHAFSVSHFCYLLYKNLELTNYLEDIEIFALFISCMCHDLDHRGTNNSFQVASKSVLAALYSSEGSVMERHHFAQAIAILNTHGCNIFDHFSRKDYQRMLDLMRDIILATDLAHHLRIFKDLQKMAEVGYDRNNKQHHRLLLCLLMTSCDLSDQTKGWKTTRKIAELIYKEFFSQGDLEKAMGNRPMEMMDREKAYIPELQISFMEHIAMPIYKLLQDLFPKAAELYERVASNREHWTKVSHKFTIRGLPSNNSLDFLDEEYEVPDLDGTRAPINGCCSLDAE
# PDE11A, sequence (Q9HCR9 whole entry, species assumed): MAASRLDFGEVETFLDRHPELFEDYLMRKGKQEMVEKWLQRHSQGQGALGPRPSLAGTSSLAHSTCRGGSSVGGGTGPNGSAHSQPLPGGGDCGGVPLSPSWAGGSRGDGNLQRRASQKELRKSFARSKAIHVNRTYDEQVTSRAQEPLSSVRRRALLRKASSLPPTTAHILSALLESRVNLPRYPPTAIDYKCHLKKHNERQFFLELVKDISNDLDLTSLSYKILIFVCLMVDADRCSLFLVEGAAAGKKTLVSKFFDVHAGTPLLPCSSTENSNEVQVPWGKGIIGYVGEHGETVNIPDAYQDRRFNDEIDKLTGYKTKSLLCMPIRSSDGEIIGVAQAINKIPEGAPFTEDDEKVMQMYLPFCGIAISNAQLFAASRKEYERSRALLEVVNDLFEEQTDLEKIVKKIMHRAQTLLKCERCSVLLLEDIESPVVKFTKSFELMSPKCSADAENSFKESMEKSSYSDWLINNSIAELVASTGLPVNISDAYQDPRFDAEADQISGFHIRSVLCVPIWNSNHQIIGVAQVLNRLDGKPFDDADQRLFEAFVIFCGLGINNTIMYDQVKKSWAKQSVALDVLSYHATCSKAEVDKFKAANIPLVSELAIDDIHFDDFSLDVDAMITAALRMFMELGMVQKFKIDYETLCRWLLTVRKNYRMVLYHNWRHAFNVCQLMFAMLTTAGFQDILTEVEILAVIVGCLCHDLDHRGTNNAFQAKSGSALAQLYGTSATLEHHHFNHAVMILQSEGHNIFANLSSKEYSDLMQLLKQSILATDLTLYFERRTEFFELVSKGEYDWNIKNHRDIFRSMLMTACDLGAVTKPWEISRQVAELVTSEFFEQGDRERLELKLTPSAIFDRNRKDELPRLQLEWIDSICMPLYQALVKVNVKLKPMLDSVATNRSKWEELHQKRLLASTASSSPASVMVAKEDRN
# PDE4D, sequence (Q08499 whole entry, species assumed): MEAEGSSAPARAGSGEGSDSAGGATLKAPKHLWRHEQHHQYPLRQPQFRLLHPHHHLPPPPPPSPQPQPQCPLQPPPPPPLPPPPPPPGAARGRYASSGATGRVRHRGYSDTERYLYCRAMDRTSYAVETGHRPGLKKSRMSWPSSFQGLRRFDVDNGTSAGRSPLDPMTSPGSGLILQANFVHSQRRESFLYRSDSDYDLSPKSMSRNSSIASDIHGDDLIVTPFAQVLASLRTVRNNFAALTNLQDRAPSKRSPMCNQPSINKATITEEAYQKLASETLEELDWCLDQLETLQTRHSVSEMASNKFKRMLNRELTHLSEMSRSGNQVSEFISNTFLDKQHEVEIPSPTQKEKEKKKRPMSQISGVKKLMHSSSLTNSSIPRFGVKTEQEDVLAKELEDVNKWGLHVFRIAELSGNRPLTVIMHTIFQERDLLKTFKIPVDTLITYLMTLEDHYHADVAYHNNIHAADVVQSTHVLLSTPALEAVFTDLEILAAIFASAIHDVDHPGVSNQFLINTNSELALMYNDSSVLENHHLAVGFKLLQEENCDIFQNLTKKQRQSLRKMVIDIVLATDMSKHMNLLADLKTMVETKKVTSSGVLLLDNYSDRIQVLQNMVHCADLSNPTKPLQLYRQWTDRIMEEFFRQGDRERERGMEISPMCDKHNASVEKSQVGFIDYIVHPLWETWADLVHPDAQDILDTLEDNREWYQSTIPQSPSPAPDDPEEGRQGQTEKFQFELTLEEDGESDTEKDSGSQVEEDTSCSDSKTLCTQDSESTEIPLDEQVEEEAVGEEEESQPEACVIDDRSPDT
smiles,measurement,setting,value
"Cc1nc2c(N3CCOCC3)nccn2c1-c1ccc(C2CCOCC2)nc1 [compound 25, 2-Methyl-8-morpholin-4-yl-3-[6-(tetrahydro-pyran-4-yl)-pyridin-3-yl]-imidazo[1,2-a]pyrazine]",IC50,PDE4D,58.9 µM
same,ED50,PDE10,4.6 mg/kg
same,IC50,PDE2A,42.7 µM
same,ED50,[1],2 mg/kg
same,ED50,[2],1.2 mg/kg
same,IC50,PDE5A,33.9 µM
same,IC50,PDE11A,66.1 µM
same,IC50,"[3]; Table 4a in vitro selectivity, read-out: IC50 PDE type 10A",0.16 µM
same,IC50,"[3]; pIC50 corresponds to the -log IC50 expressed in mol/L, read-out: PDE10A2 pIC50 (converted)",0.191 µM
same,IC50,PDE6AB,96.5 µM
same,IC50,PDE1B,> 100 µM
